Our source for the IC50 values is patent US20050272784A1 (priority 2004, published 2005).

The structures appear in SMILES notation.

The test has as its system type III protein secretion system of P. aeruginosa PA103 (ExoU secretion). The test is described as follows: Tertiary assay: Type III-dependent secretion of ExoU by P. aeruginosa PA103. The class given is cell-based. Conditions: Pseudomonas aeruginosa, ExoU secreted into extracellular medium. The text has this:
Tertiary assay: inhibition of Type III protein secretion of effectors from a Pseudomonas aeruginosa system. Type III protein secretion is used by P. aeruginosa to secrete several essential virulence determinants. One effector of the type III protein secretion system of P. aeruginosa PA103 is the virulence determinants ExoU.
The amount of Type III-dependent secretion of ExoU by P. aeruginosa PA103 can be determined in a cell-based assay by quantification of the 73.9 kDa ExoU protein scereted into the extracellular medium. Such quantitation can be achieved by growing strain PA103 in a deferrated medium in the presence of nitrilotriacetic acid (an inducer of Type III protein secretion in P. aeruginosa) and either in the presence or absence of putative inhibitors. After a prolonged growth period, the cells are sedimented and the supernatants concentrated by ammonium sulfate precipitation. The proteins in the resuspended pellets are separated by electrophoresis on SDS-polyacrylamide gels. After staining gels with Colloidal Blue™, the 73.9 kDa ExoU band is quantitated by scanning through an imager. The effects of inhibitors on the intensity of the ExoU band may be measured relative to that of untreated controls.
What is called IC50 is the concentration at which inhibition is half-maximal. `N#Cc1ccc(-c2oc(-c3ccc(C(F)(F)F)cc3)nc2C(=O)NC(CSCc2ccccc2)C(=O)O)cc1` (stereo in doubt) [Compound 1, (R)-3-Benzylsulfanyl-2-{[5-(4-cyanophenyl)-2-(4-trifluoromethylphenyl)oxazole-4-carbonyl]amino}propionic acid] showed an IC50 of 70.7 µM.

`O=C(NC(Cc1ccc(Cl)cc1)C(=O)O)c1[nH]c(-c2ccc(-c3ccccc3)cc2)nc1-c1cccc(C(F)(F)F)c1` (stereo not shown) [Compound 3, 2-{[2-Biphenyl-4-yl-5-(3-trifluoromethylphenyl)-3H-imidazole-4-carbonyl]amino}-3-(4-chlorophenyl)propionic acid] yielded an IC50 of 20.6 µM.

`O=C(N[C@H](Cc1ccc(Cl)cc1)C(=O)O)c1nc(-c2ccc(-c3ccccc3)cc2)nn1-c1cccc(C(F)(F)F)c1` [Compound 4, (R)-2-{[5-Biphenyl-4-yl-2-(3-trifluoromethylphenyl)-2H-[1,2,4]triazole-3-carbonyl]amino}-3-(4-chlorophenyl)propionic acid] gave an IC50 of 56.6 µM.

`O=C(N[C@@H](CSCc1ccccc1)C(=O)O)c1nc(-c2ccc(C(F)(F)F)cc2)oc1-c1ccc(-c2ccccc2)cc1` [Compound 5, (R)-3-Benzylsulfanyl-2-{[5-biphenyl-4-yl-2-(4-trifluoromethylphenyl)oxazole-4-carbonyl]amino}propionic acid] displayed an IC50 of 12.5 µM.

`O=C(N[C@@H](CSCc1ccccc1)C(=O)O)c1nc(-c2ccc(C(F)(F)F)cc2)sc1-c1ccc(OCc2ccccc2)cc1` [Compound 7, (R)-2-{[5-(4-Benzyloxyphenyl)-2-(4-trifluoromethylphenyl)thiazole-4-carbonyl]amino}-3-benzylsulfanylpropionic acid]: inhibition was half-maximal at 54.4 µM (IC50).

`O=C(N[C@@H](CSCc1ccccc1)C(=O)O)c1nc(-c2ccc(Oc3ccccc3)cc2)oc1-c1ccc(Cl)c(Cl)c1` [Compound 8, (R)-3-Benzylsulfanyl-2-{[5-(3,4-dichlorophenyl)-2-(4-phenoxyphenyl)oxazole-4-carbonyl]amino}propionic acid] returned an IC50 of 45.4 µM.

Take `O=C(N[C@@H](CSCc1ccccc1)C(=O)O)c1nc(-c2ccc(C(F)(F)F)cc2)oc1C#Cc1ccccc1` [Compound 9, (R)-3-Benzylsulfanyl-2-{[5-phenylethynyl-2-(4-trifluoromethylphenyl)oxazole-4-carbonyl]amino}propionic acid]: the IC50 came to 26.7 µM.

On to `O=C(N[C@@H](COCc1ccccc1)C(=O)O)c1nc(-c2ccc(C(F)(F)F)cc2)oc1C#Cc1ccccc1` [Compound 10, (S)-3-Benzyloxy-2-{[5-phenylethynyl-2-(4-trifluoromethylphenyl)oxazole-4-carbonyl]amino}propionic acid], for which the IC50 turned out to be 42.4 µM. Against the preceding compound, the IC50 is about 1.6-fold higher.

As for `O=C(N[C@@H](COCc1ccccc1)C(=O)O)c1nc(-c2ccc(Oc3ccccc3)cc2)oc1-c1ccc(Cl)c(Cl)c1` [Compound 13, (S)-3-Benzyloxy-2-{[5-(3,4-dichlorophenyl)-2-(4-phenoxyphenyl)-oxazole-4-carbonyl]amino}propionic acid], the IC50 turned out to be 19.3 µM.

With `O=C(N[C@@H](CSCc1ccccc1)C(=O)O)c1nc(-c2ccc(C(F)(F)F)cc2)oc1-c1ccc(N2CCCCC2)nc1` [Compound 14, (R)-3-Benzylsulfanyl-2-{[5-(3,4,5,6-tetrahydro-2H-[1,2′]bipyridin-5′-yl)-2-(4-trifluoromethylphenyl)oxazole-4-carbonyl]amino}propionic acid], the IC50 is 62.8 µM.

As for `O=C(NC(Cc1ccc(Cl)cc1)C(=O)O)c1nc(-c2ccc(-c3ccccc3)cc2)oc1-c1cccc(C(F)(F)F)c1` (stereo not shown) [Compound 15, 2-{[2-Biphenyl-4-yl-5-(3-trifluoromethylphenyl)oxazole-4-carbonyl]amino}-3-(4-chlorophenyl)propionic acid], inhibition was half-maximal at 79.9 µM (IC50).

In turn, `CN(C(=O)c1nc(-c2ccc(C(F)(F)F)cc2)oc1-c1ccc(-c2ccccc2)cc1)[C@@H](CSCc1ccccc1)C(=O)O` [Compound 16] showed an IC50 of 80.9 µM.

In turn, `O=C(N[C@@H](CSCc1ccccc1)C(=O)O)c1nc(-c2ccc(C(F)(F)F)cc2)oc1-c1ccc(OCc2ccccc2)cc1` [Compound 17, (R)-2-{[5-(4-Benzyloxyphenyl)-2-(4-trifluoromethylphenyl)oxazole-4-carbony]amino}-3-benzylsulfanylpropionic acid] yielded an IC50 of 34.3 µM.

Compound `O=C(N[C@@H](CSCc1ccccc1)C(=O)O)c1nc(-c2ccc(C(F)(F)F)cc2)oc1-c1ccc(-c2cccnc2)cc1` [Compound 18, (R)-3-Benzylsulfanyl-2-{[5-(4-pyridin-3-yl-phenyl)-2-(4-trifluoromethylphenyl)-oxazole-4-carbonyl]amino}propionic acid] gave an IC50 of 89.1 µM.

`O=C(N[C@@H](CSCc1ccccc1)C(=O)O)c1nc(-c2ccc(C(F)(F)F)cc2)oc1-c1ccc(-c2ccncc2)cc1` [Compound 19, (R)-3-Benzylsulfanyl-2-{[5-(4-pyridin-4-yl-phenyl)-2-(4-trifluoromethylphenyl)oxazole-4-carbonyl]amino}propionic acid]: the IC50 came out at 78.2 µM.

As for `O=C(N[C@@H](COCc1ccccc1)C(=O)O)c1nc(-c2ccc(C(F)(F)F)cc2)oc1-c1cc2ccccc2s1` [Compound 22, (S)-2-{[5-Benzo[b]thien-2-yl-2-(4-trifluoromethylphenyl)oxazole-4-carbonyl]amino}-3-benzyloxypropionic acid], the IC50 came out at 82.4 µM.

Consider `O=C(N[C@@H](CSCc1ccccc1)C(=O)O)c1nc(-c2ccc(C(F)(F)F)cc2)oc1-c1cc2ccccc2s1` [Compound 23, (R)-2-{[5-Benzo[b]thien-2-yl-2-(4-trifluoromethylphenyl)oxazole-4-carbonyl]amino}-3-benzylsulfanylpropionic acid], for which the concentration for half-maximal inhibition (IC50) is 40.7 µM.

Regarding `O=C(N[C@@H](COCc1ccccc1)C(=O)O)c1nc(-c2ccc(C(F)(F)F)cc2)oc1-c1ccc2ccccc2n1` [Compound 27, (S)-3-Benzyloxy-2-{[5-quinolin-2-yl-2-(4-trifluoromethylphenyl)oxazole-4-carbonyl]amino}propionic acid], the IC50 turned out to be 93.1 µM. This IC50 lies about 2.3-fold higher than the previous one.

In turn, `O=C(N[C@@H](COCc1ccccc1)C(=O)O)c1nc(-c2ccc(C(F)(F)F)cc2)oc1-c1ccc(Cl)nc1` [Compound 29, (S)-3-Benzyloxy-2-{[5-(6-chloropyridin-3-yl)-2-(4-trifluoromethylphenyl)oxazole-4-carbonyl]amino}propionic acid] had an IC50 of 73.4 µM.

`O=C(N[C@@H](CSCc1ccccc1)C(=O)O)c1nc(-c2ccc(C(F)(F)F)cc2)oc1-c1ccc(-c2ccccc2)nc1` [Compound 33, (R)-3-Benzylsulfanyl-2-{[5-(6-phenylpyridin-3-yl)-2-(4-trifluoromethylphenyl)oxazole-4-carbonyl]amino}propionic acid] came in with an IC50 of 48.9 µM.

In turn, `O=C(N[C@@H](CSCc1ccccc1)C(=O)O)c1nc(-c2ccc(C(F)(F)F)cc2)oc1-c1ccc(-c2ccc(F)cc2)nc1` [Compound 34, (R)-3-Benzylsulfanyl-2-{[5-[6-(4-fluorophenyl)pyridin-3-yl]-2-(4-trifluoromethylphenyl)oxazole-4-carbonyl]amino}propionic acid] returned an IC50 of 47.4 µM.

The compound `O=C(N[C@@H](COCc1ccccc1)C(=O)O)c1nc(-c2ccc(C(F)(F)F)cc2)oc1-c1cc2ccccc2o1` [Compound 35, (S)-2-{[5-Benzofuran-2-yl-2-(4-trifluoromethylphenyl)oxazole-4-carbonyl]amino}-3-benzyloxypropionic acid] registered an IC50 of 79.8 µM. This IC50 is about 1.7-fold higher than that of the compound before.

In turn, `O=C(N[C@@H](COCc1ccccc1)C(=O)O)c1nc(-c2ccc(Oc3ccccc3)cc2)oc1-c1ccc(Cl)nc1Cl` [Compound 37, (S)-3-Benzyloxy-2-{[5-(2,6-dichloropyridin-3-yl)-2-(4-phenoxyphenyl)oxazole-4-carbonyl]amino}propionic acid] had an IC50 of 91.7 µM.

For the compound `O=C(NC(Cc1ccc(Cl)cc1)C(=O)O)c1nc(-c2ccc(Oc3ccccc3)cc2)oc1-c1cnc(Cl)c(Cl)c1` (stereo not shown) [Compound 41, 3-(4-Chlorophenyl)-2-{[5-(5,6-dichloropyridin-3-yl)-2-(4-phenoxyphenyl)oxazole-4-carbonyl]amino}propionic acid], it took 51.6 µM to reach half-maximal inhibition (IC50).

With `O=C(NC(Cc1ccc(Cl)cc1)C(=O)O)c1nc(-c2ccc(C(F)(F)F)cc2)oc1-c1cc2ccccc2o1` (stereo not shown) [Compound 42, 2-{[5-Benzofuran-2-yl-2-(4-trifluoromethylphenyl)oxazole-4-carbonyl]amino}-3-(4-chlorophenyl)propionic acid], inhibition was half-maximal at 27.1 µM (IC50).

`O=C(N[C@@H](CSCc1ccccc1)C(=O)O)c1nc(-c2ccc(-c3ccccc3)cc2)oc1-c1cnc(Cl)c(Cl)c1` [Compound 43, (R)-3-Benzylsulfanyl-2-{[2-biphenyl-4-yl-5-(5,6-dichloropyridin-3-yl)oxazole-4-carbonyl]amino}propionic acid] yielded an IC50 of 45.7 µM.

Turning to `O=C(NC(Cc1ccc(Cl)cc1)C(=O)O)c1nc(-c2ccc(-c3ccccc3)cc2)oc1-c1cnc(Cl)c(Cl)c1` (stereo not shown) [Compound 45, 2-{[2-Biphenyl-4-yl-5-(5,6-dichloropyridin-3-yl)oxazole-4-carbonyl]amino}-3-(4-chlorophenyl)propionic acid], the IC50 is 51.8 µM.

`Cn1cc(-c2oc(-c3ccc(C(F)(F)F)cc3)nc2C(=O)NC(Cc2ccc(Cl)cc2)C(=O)O)c2ccccc21` (stereo not shown) [Compound 48, 3-(4-Chlorophenyl)-2-{[5-(1-methyl-1H-indol-3-yl)-2-(4-trifluoromethylphenyl)oxazole-4-carbonyl]amino}propionic acid] came in with an IC50 of 73.5 µM.
